Source: patent US20250195498A1, “INHIBITOR OF CELLULAR PURINE NUCLEOTIDE SALVAGE PATHWAY ENZYME FOR USE IN THE TREATMENT AND/OR PREVENTION OF HELICOBACTER PYLORI INFECTION AND/OR DISEASE ASSOCIATED WITH SUCH INFECTION AND PHARMACEUTICAL COMPOSITION COMPRISING THE SAME” (UNIWERSYTET WARSZAWSKI, priority 2022, published 2025)
≈ marks a conversion by molar mass, not a printed value. Where “and” joins values, the source holds several entries; their conditions need not be identical. Equal values may be shown once. Read-outs that look alike come from different tables or passages of the source.

How the values were obtained:
H. pylori strain 26695 = experiment: Growth curve method / MIC in liquid culture, strain 26695; type: cell-based, Helicobacter pylori; conditions: Helicobacter pylori
Procedure, shortened: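 Two-fold serial dilutions in BHI liquid medium with 10% FBS and 1% H. pylori Selective Supplement, inoculated at 10^4-10^5 CFU/ml (OD600=0.05); shaken 24 h at 37° C. under microaerophilic conditions (5% O2, 10% CO2, 85% N2). MIC from OD600 growth; viability confirmed by 4 h urease/phenol red colour change; triplicate.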

[1] = biological target: T1, AdSS from H. pylori strain 26695 (Helicobacter pylori, UniProt P56137); experiment: AdSS enzyme activity assay (adenylosuccinate formation, 280 nm); type: biochemical; conditions: for AdSS activity after incubation: 1.23 U/mg in the absence of PLP
T1 construct: made in house; host or cells: E. coli BL21 (DE3)
T1 sequence (P56137 1-411): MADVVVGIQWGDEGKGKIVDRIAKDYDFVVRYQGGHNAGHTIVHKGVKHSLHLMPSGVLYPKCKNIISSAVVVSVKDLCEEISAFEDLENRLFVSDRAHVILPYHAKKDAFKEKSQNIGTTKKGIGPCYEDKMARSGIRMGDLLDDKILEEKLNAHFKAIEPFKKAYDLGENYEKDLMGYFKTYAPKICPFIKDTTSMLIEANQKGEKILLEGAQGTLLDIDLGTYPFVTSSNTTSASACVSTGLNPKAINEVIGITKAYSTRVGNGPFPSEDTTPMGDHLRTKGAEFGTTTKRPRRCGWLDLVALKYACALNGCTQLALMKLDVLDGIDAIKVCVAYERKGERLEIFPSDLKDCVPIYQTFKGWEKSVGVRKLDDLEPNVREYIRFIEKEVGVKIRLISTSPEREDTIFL
Procedure: Enzymatic activity measurements were carried out in the similar manner as described in Bubić et al. (2018), at 25° C., in cuvettes with an optical path length of 1 cm containing 1 ml of reaction mixture consisting of 20 mM Hepes/NaOH buffer pH 7.7, 1 mM MgSO4 and the substrates, GTP, IMP and Asp. Saturating concentrations of substrates, namely GTP: 0.06 mM, IMP: 0.15 mM and Asp: 5 mM, were used to measure specific activity. The extinction coefficient at 280 nm of 1.17×10^4 M^−1 cm^−1 (adenylosuccinate formation) was used to calculate the concentration of the product formed (Rudolph and Fromm 1969). One unit (U) of AdSS specific activity is defined as μmol of adenylosuccinate produced per minute at 25° C. Specific activity is expressed as units of enzymatic activity per mg of protein (U/mg).
Inhibition of AdSS by PLP was examined first at saturation with all enzyme substrates and with increasing concentrations of the PLP inhibitor.
To determine the extent to which PLP-induced inactivation develops over time, the enzyme at low concentration (0.022 μM) was incubated at 25° C. in Hepes/NaOH buffer pH 7.0, in the presence of 1.11 mM MgSO4, 5.55 mM Asp, 167 μM IMP and PLP at various concentrations (ranging between 0.03 μM and 8.1 μM). The mixture contained all components necessary for the reaction with the exception of GTP, which, according to Dong and Fromm (1990), competes with PLP. Aliquots of 900 μl were taken from the incubated mixture at specified time intervals, placed in a cuvette and 100 μl of 0.6 mM GTP solution was added to initiate the reaction. The enzyme activity was determined and analysed in the known manner as described above.
Exponential decays were fitted to the data obtained for each concentration and the reaction rate constant of the inactivation process, k, and the residual enzymatic activity observed when the system reached equilibrium, A∞, were obtained as fitting parameters. From these parameters, the half-life of the inactivation process activity, t1/2, was calculated. The dependence of these three parameters on PLP concentration is shown in the lower panel of FIG. 12.
The inhibition of AdSS from H. pylori by pyridoxal (PI-h) was studied at saturation with all enzyme substrates and with increasing concentrations of the inhibitor, similar to that for PLP in Example 10a).

[2] = strain 26695, wild-type, read-out: MIC (Table 7)
[3] = 8.1 μM PLP, about 10 minutes of incubation without GTP

| Compound | MIC (H. pylori strain 26695; [2]) | MIC (H. pylori strain 26695; strain 26695, read-out: MIC) | IC50 [1] | AdSS activity after incubation ([1]; 0.03 μM PLP, about 4 hours of incubation without GTP) | inactivation of AdSS ([1]; 0.03 μM PLP, enzyme 0.022 μM incubated without GTP, 25° C.) | inactivation of the enzyme ([1]; 1 μM PLP, incubation without GTP) | decrease in AdSS activity [1, 3] | AdSS activity after incubation [1, 3] | decrease of enzyme activity ([1]; PLP above about 100 μM, saturating substrates, 25° C., pH 7.7) | effect on AdSS activity ([1]; 400 μM (maximum used), saturating substrates) |
| --- | --- | --- | --- | --- | --- | --- | --- | --- | --- | --- |
| Cc1ncc(COP(=O)(O)O)c(C=O)c1O [PLP, pyridoxal 5′-phosphate] | 2.5 µM (≈ 0.618 µg/mL) | 618 µg/mL and 2500 µM | 13.3 µM | 0.48 U/mg | more than 50% | 90% | about 97% | 0.04 U/mg | 86% | – |
| Cc1ncc(CO)c(C=O)c1O.Cl [PI-h, pyridoxal hydrochloride] | 2.5 µM | 509 µg/mL and 2500 µM | – | – | – | – | – | – | – | no effect on AdSS activity |
